Measurements: US9545409B2 (priority 2012, dated 2017)

What was measured:
NMDA-receptors = experiment: blocking/unblocking of NMDA-receptors; settings: stated property, no test described
[1] = system: ischemia-reperfusion eye model
central eye artery = experiment: blood circulation in the central eye artery under model ischemia-reperfusion; format: in vivo; settings: rats, intravenous, doses of 3, 5, 10, 20 and 100 mg/kg
[2] = rats, parenteral, within 96 hours of ischemia, doses of 3, 5, 10, 20 and 100 mg/kg

In the case of OC(COCCC12CC3CC(CC(C3)C1)C2)CN1CCOCC1 (stereo not shown) [1-adamantylethyloxy-3-morpholino-2-propanol], the “blocking/unblocking NMDA-receptors” value (NMDA-receptors) is reported as “fast blocking/unblocking”, the “disturbed indicators of acid-alkali balance, oxidative stress and energy metabolism in the retina” value [1, 2] is reported as “promoted the normalization” and the “number of apoptotic and necrotic cells in eye posterior part” value [1, 2] is reported as “reduces”. The “perivascular edema in the retina and optic nerve” value [1, 2] was “attenuated”, the “retinal manifestations of endothelial dysfunction and nitrosating stress” value [1, 2] was “promoted the reduction” and the “neuroprotective properties under ischemic-hypoxic injury of retina and optic nerve” value ([1]; summary of the studies, composition concentration range 3-100 mg/ml) was “expressed neuroprotective properties”. For the same compound, the “blood circulation in the central eye artery” value (central eye artery) was “stimulates”.
